Measurements: PubChem BioAssay AID248 (DTP/NCI, 2004)
Several values for one entry are separate records, joined by “and”; a condition that tells them apart may be missing. Equal values may be shown once. Inconclusive results and toxic doses are left out. No stated cut-off is given here; in the data, active means T/C of 150% or more; inactive means T/C below 125%.

Tested on: L1210 leukemia ip in BDF1 mice, survival T/C
Experiment: NCI In Vivo Anticancer Drug Screen. Data for tumor model L1210 Leukemia (intraperitoneal) in B6D2F1 (BDF1) mice
Conditions: endpoint: mean survival time, higher = longer survival
In short: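 Read-out is survival time, reported as the treated-group measurement over the vehicle-control measurement.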

[1] = dose: 100.0 mg/kg/injection, schedule: Q01DX001 (ip), vehicle: saline
[2] = dose: 100.0 mg/kg/injection, schedule: Q04DX003 (ip), vehicle: Klucel (hydroxypropylcellulose) (HPC)
[3] = dose: 200.0 mg/kg/injection, schedule: Q01DX001 (ip), vehicle: saline
[4] = dose: 200.0 mg/kg/injection, schedule: Q04DX003 (ip), vehicle: Klucel (hydroxypropylcellulose) (HPC)
[5] = dose: 400.0 mg/kg/injection, schedule: Q01DX001 (ip), vehicle: saline
[6] = dose: 400.0 mg/kg/injection, schedule: Q04DX003 (ip), vehicle: Klucel (hydroxypropylcellulose) (HPC)
[7] = dose: 50.0 mg/kg/injection, schedule: Q01DX009 (ip), vehicle: Klucel (hydroxypropylcellulose) (HPC)
[8] = dose: 100.0 mg/kg/injection, schedule: Q01DX009 (ip), vehicle: Klucel (hydroxypropylcellulose) (HPC)
[9] = dose: 200.0 mg/kg/injection, schedule: Q01DX009 (ip), vehicle: Klucel (hydroxypropylcellulose) (HPC)

Measured: T/C

Ic1ncnc2c1ncn2C1CCCCO1 (configuration not stated)
inactive: dose: 31.0 mg/kg/injection, schedule: Q01DX Z (ip), vehicle: other 111 % of control | dose: 62.0 mg/kg/injection, schedule: Q01DX Z (ip), vehicle: other 109 % of control | [1] 98 % of control | dose: 100.0 mg/kg/injection, schedule: Q01DX009 (ip), vehicle: saline sonified 96 % of control | [2] 93 % of control | dose: 125.0 mg/kg/injection, schedule: Q01DX Z (ip), vehicle: other 103 % of control | [3] 107 % of control | dose: 200.0 mg/kg/injection, schedule: Q01DX009 (ip), vehicle: saline sonified 93 % of control | [4] 94 % of control | dose: 250.0 mg/kg/injection, schedule: Q01DX Z (ip), vehicle: other 111 % of control | dose: 375.0 mg/kg/injection, schedule: Q01DX Z (ip), vehicle: other 114 % of control | [5] 104 % of control | [6] 98 % of control | dose: 500.0 mg/kg/injection, schedule: Q01DX Z (ip), vehicle: other 121 % of control

Nc1cc(C(=O)O)[nH]c(=O)n1
inactive: dose: 100.0 mg/kg/injection, schedule: Q01DX Z (ip), vehicle: methylcellulose (MC) 97 % of control

O=Cc1[nH]c(=S)[nH]c(=O)c1Cc1ccc2ccccc2c1
inactive: dose: 100.0 mg/kg/injection, schedule: Q01DX001 (ip), vehicle: saline with Tween-80 104 % of control | dose: 200.0 mg/kg/injection, schedule: Q01DX001 (ip), vehicle: saline with Tween-80 104 % of control

NC(N)=N/N=C(/C=C/c1ccccc1)c1ccc(Cl)cc1
inactive: dose: 15.0 mg/kg/injection, schedule: Q01DX Z (ip), vehicle: carboxymethylcellulose (CMC) 92 % of control | dose: 30.0 mg/kg/injection, schedule: Q01DX Z (ip), vehicle: carboxymethylcellulose (CMC) 92 % of control | dose: 60.0 mg/kg/injection, schedule: Q01DX Z (ip), vehicle: carboxymethylcellulose (CMC) 95 % of control and 91 % of control | dose: 120.0 mg/kg/injection, schedule: Q01DX Z (ip), vehicle: carboxymethylcellulose (CMC) 101 % of control and 88 % of control | dose: 120.0 mg/kg/injection, schedule: Q01DX Z (oral), vehicle: carboxymethylcellulose (CMC) 96 % of control | dose: 240.0 mg/kg/injection, schedule: Q01DX Z (ip), vehicle: carboxymethylcellulose (CMC) 90 % of control | dose: 240.0 mg/kg/injection, schedule: Q01DX Z (oral), vehicle: carboxymethylcellulose (CMC) 100 % of control | dose: 480.0 mg/kg/injection, schedule: Q01DX Z (oral), vehicle: carboxymethylcellulose (CMC) 105 % of control | dose: 960.0 mg/kg/injection, schedule: Q01DX Z (oral), vehicle: carboxymethylcellulose (CMC) 102 % of control

CC(C)CCCC(C)C1CCC2C3CC=C4C=C(OC(=O)c5ccccc5)CCC4(C)C3CCC12C (configuration not stated)
inactive: dose: 100.0 mg/kg/injection, schedule: Q01DX009 (ip), vehicle: saline with Tween-80 90 % of control | dose: 100.0 mg/kg/injection, schedule: Q04DX003 (ip), vehicle: saline with Tween-80 97 % of control | dose: 200.0 mg/kg/injection, schedule: Q01DX009 (ip), vehicle: saline with Tween-80 87 % of control | dose: 200.0 mg/kg/injection, schedule: Q04DX003 (ip), vehicle: saline with Tween-80 95 % of control | dose: 400.0 mg/kg/injection, schedule: Q01DX009 (ip), vehicle: saline with Tween-80 95 % of control | dose: 400.0 mg/kg/injection, schedule: Q04DX003 (ip), vehicle: saline with Tween-80 87 % of control

COc1ccccc1N1C(=O)C2C(C1=O)C1(Cl)C(Cl)=C(Cl)C2(Cl)C1(Cl)Cl (configuration not stated)
inactive: [7] 101 % of control | [8] 95 % of control | [2] 103 % of control | [9] 101 % of control and 92 % of control | [4] 109 % of control

C#CC1(O)CC[C@H]2[C@@H]3CCC4=CCCC[C@@H]4[C@H]3CC[C@@]21C (some centres not stated)
inactive: dose: 100.0 mg/kg/injection, schedule: Q01DX001 (ip), vehicle: carboxymethylcellulose (CMC) 103 % of control | dose: 200.0 mg/kg/injection, schedule: Q01DX001 (ip), vehicle: carboxymethylcellulose (CMC) 96 % of control | dose: 400.0 mg/kg/injection, schedule: Q01DX001 (ip), vehicle: carboxymethylcellulose (CMC) 91 % of control

C#CC[N+](CC#C)(CC#C)CC#C
inactive: dose: 25.0 mg/kg/injection, schedule: Q01DX009 (ip), vehicle: saline 96 % of control | dose: 50.0 mg/kg/injection, schedule: Q01DX009 (ip), vehicle: saline 102 % of control | dose: 100.0 mg/kg/injection, schedule: Q01DX009 (ip), vehicle: saline 104 % of control

CO[C@H]1/C=C/O[C@@]2(C)Oc3c(C)c(O)c4c(O)c(c(/C=N/N5CCN(C)CC5)c(O)c4c3C2=O)NC(=O)/C(C)=C\C=C\[C@H](C)[C@H](O)[C@@H](C)[C@@H](O)[C@@H](C)[C@H](OC(C)=O)[C@@H]1C
inactive: dose: 25.0 mg/kg/injection, schedule: Q01DX009 (ip), vehicle: Klucel (hydroxypropylcellulose) (HPC) 96 % of control | dose: 50.0 mg/kg/injection, schedule: Q01DX001 (ip), vehicle: water 97 % of control | [7] 94 % of control | [1] 97 % of control | dose: 100.0 mg/kg/injection, schedule: Q01DX001 (ip), vehicle: water 103 % of control | [8] 94 % of control | [3] 100 % of control | dose: 200.0 mg/kg/injection, schedule: Q01DX001 (ip), vehicle: water 100 % of control | [5] 97 % of control | dose: 400.0 mg/kg/injection, schedule: Q01DX001 (ip), vehicle: water 108 % of control | dose: 1200.0 mg/kg/injection, schedule: Q01DX001 (ip), vehicle: acetone 102 % of control

O=C(Nc1ccc(F)c(Cl)c1)Oc1ccc(Br)cc1Br
inactive: dose: 100.0 mg/kg/injection, schedule: Q04DX002 (ip), vehicle: saline with Tween-80 100 % of control | dose: 200.0 mg/kg/injection, schedule: Q04DX002 (ip), vehicle: saline with Tween-80 107 % of control | dose: 400.0 mg/kg/injection, schedule: Q04DX002 (ip), vehicle: saline with Tween-80 100 % of control

CCOC(=O)CNCc1ccc(C)cc1
inactive: dose: 100.0 mg/kg/injection, schedule: Q01DX009 (ip), vehicle: water 102 % of control | dose: 100.0 mg/kg/injection, schedule: Q04DX003 (ip), vehicle: water 93 % of control | dose: 200.0 mg/kg/injection, schedule: Q01DX009 (ip), vehicle: water 111 % of control | dose: 200.0 mg/kg/injection, schedule: Q04DX003 (ip), vehicle: water 93 % of control | dose: 400.0 mg/kg/injection, schedule: Q01DX009 (ip), vehicle: water 105 % of control | dose: 400.0 mg/kg/injection, schedule: Q04DX003 (ip), vehicle: water 97 % of control

O=CC1CO1 (configuration not stated)
inactive: dose: 29.0 mg/kg/injection, schedule: Q01DX Z (ip), vehicle: steriod suspending solution 97 % of control | dose: 44.0 mg/kg/injection, schedule: Q01DX Z (ip), vehicle: steriod suspending solution 99 % of control | dose: 66.0 mg/kg/injection, schedule: Q01DX Z (ip), vehicle: steriod suspending solution 106 % of control

CCCCNC(=O)Nc1ccc(C)c(Cl)c1
inactive: [8] 96 % of control | [2] 94 % of control | [9] 94 % of control | [4] 94 % of control | dose: 400.0 mg/kg/injection, schedule: Q01DX009 (ip), vehicle: Klucel (hydroxypropylcellulose) (HPC) 89 % of control | [6] 100 % of control
